Laboratory results reported in paper PMC9007350, “Aurintricarboxylic acid is a canonical disruptor of the TAZ-TEAD transcriptional complex” (PLoS ONE, 2022).

Columns and labels:
[1] = tested on: NIH3T3 cells expressing TAZ-CAMTA1; test: Soft agar colony growth assay, TAZ-CAMTA1; assay type: cell-based
Description: Soft agar colony growth assay was performed as previously described. The colonies were counted using Image-Pro Plus 7.0 software (Media Cybernetics). ATA cytotoxicity was assessed using the CyQUANT LDH Cytotoxicity Assay Kit (ThermoFisher) and was performed as per the manufacturer’s protocol.

[2] = tested on: TC/TEAD transcriptional profile in TC-expressing NIH3T3 cells; test: Bulk RNA-Seq, differential gene expression and GSEA (TC ATA v. TC DMSO); assay type: cell-based, murine
Description: NIH3T3 and HEK293 cells were obtained from the American Type Tissue Collection (ATCC, Manassas, VA) and cultured in DMEM containing 10% fetal bovine serum and penicillin/streptomycin. A TEAD dual luciferase reporter assay was performed as previously described. Cells were treated with vehicle control or ATA (10 μM) for 48 h before measuring the luciferase activity or processing the samples for RNA extraction. Each experiment was repeated at least 2-3 times. NIH3T3 cells were used. The extracted RNA (RNeasy Mini, Qiagen) from treated cells was either used for qPCR measurements or sent for bulk RNA-Seq. Sequencing runs were performed on an Illumina HiSeq 4000 sequencer (Genewiz). Subsequent bioinformatics analysis was performed in the Galaxy Project platform. Paired end reads were aligned to the murine genome ([…]2 [27]. Raw count files were generated with featureCounts using a corresponding GTF reference. Differential gene expression analysis was performed with DESeq2 [29]. Transcripts were considered to be differentially expressed if the false discovery rate < 0.05 and Log2FC > 2. When performing differential gene expression for GSEA analysis, the Limma package was used (<5 CPM filtering) with t-scores used for rank statistics. GSEA plots and statistics were generated with FGSEA with custom gene sets. Raw sequencing reads and processed files have been deposited in the GEO repository (data will be uploaded upon manuscript acceptance). The Universal Probe Library probes (Roche) and the associated primer sequences for the qPCR targets are listed below: […]

O=C(O)C1=CC(=C(c2ccc(O)c(C(=O)O)c2)c2ccc(O)c(C(=O)O)c2)C=CC1=O [ATA, aurintricarboxylic acid]
TC-driven soft agar colony growth [1]: dose-dependent reduction | Log2 Fold Change, Pkig (ENSMUSG00000035268) [2]: 0.2955 | GSEA normalized enrichment score (NES) for the 248 TC-upregulated genes ([2]; ATA-treated vs vehicle, TC-expressing NIH3T3, 10 μM, 48 h, P = 0.0036): -2.027 | Log2 Fold Change, Cep83os (ENSMUSG00000097164) ([2]; TC ATA v. TC DMSO, RNA-Seq differential gene expression, gene Cep83os): 0.5451 | Log2 Fold Change, P3h1 (ENSMUSG00000028641) ([2]; TC ATA v. TC DMSO, RNA-Seq differential gene expression, gene P3h1): 0.1936 | Log2 Fold Change, Per1 (ENSMUSG00000020893) ([2]; TC ATA v. TC DMSO, RNA-Seq differential gene expression, gene Per1): 0.3113 | Log2 Fold Change, Spn (ENSMUSG00000051457) ([2]; TC ATA v. TC DMSO, RNA-Seq differential gene expression, gene Spn): 0.7001 | Log2 Fold Change, Wnt9a (ENSMUSG00000000126) ([2]; TC ATA v. TC DMSO, RNA-Seq differential gene expression, gene Wnt9a): -0.2847 | Log2 Fold Change ([2]; gene AW551984, TC ATA v. TC DMSO): 0.7046 | Log2 Fold Change ([2]; gene Abcd2, TC ATA v. TC DMSO): 0.775 | Log2 Fold Change ([2]; gene Adgra2, TC ATA v. TC DMSO): -0.4459 | Log2 Fold Change ([2]; gene Adgrl2, TC ATA v. TC DMSO): 0.4171 | Log2 Fold Change ([2]; gene Angpt2, TC ATA v. TC DMSO): 1.066 | Log2 Fold Change ([2]; gene Angptl2, TC ATA v. TC DMSO): -0.3301 | Log2 Fold Change ([2]; gene Asb4, TC ATA v. TC DMSO): 0.7498 | Log2 Fold Change ([2]; gene Asic1, TC ATA v. TC DMSO): 0.4827 | Log2 Fold Change ([2]; gene Atg9b, TC ATA v. TC DMSO): -1.183 | Log2 Fold Change ([2]; gene Atp1a2, TC ATA v. TC DMSO): 0.776 | Log2 Fold Change ([2]; gene Atp1b1, TC ATA v. TC DMSO): 0.4541 | Log2 Fold Change ([2]; gene Cacng7, TC ATA v. TC DMSO): 0.4229 | Log2 Fold Change ([2]; gene Cbr2, TC ATA v. TC DMSO): 1.297 | Log2 Fold Change ([2]; gene Ccdc80, TC ATA v. TC DMSO): 0.4999 | Log2 Fold Change ([2]; gene Cd24a, TC ATA v. TC DMSO): 0.8435 | Log2 Fold Change ([2]; gene Cd81, TC ATA v. TC DMSO): 0.3883 | Log2 Fold Change ([2]; gene Chrnb1, TC ATA v. TC DMSO): -0.628 | Log2 Fold Change ([2]; gene Ckmt2, TC ATA v. TC DMSO): 0.9415 | Log2 Fold Change ([2]; gene Clu, TC ATA v. TC DMSO): 0.6162 | Log2 Fold Change ([2]; gene Col4a6, TC ATA v. TC DMSO): 0.4089 | Log2 Fold Change ([2]; gene Coq8a, TC ATA v. TC DMSO): 0.862 | Log2 Fold Change ([2]; gene Creg1, TC ATA v. TC DMSO): 0.425 | Log2 Fold Change ([2]; gene Csrp2, TC ATA v. TC DMSO): -0.43 | Log2 Fold Change ([2]; gene Cth, TC ATA v. TC DMSO): -0.3812 | Log2 Fold Change ([2]; gene Dhrs3, TC ATA v. TC DMSO): 0.4703 | Log2 Fold Change ([2]; gene Dlk1, TC ATA v. TC DMSO): 0.4509 | Log2 Fold Change ([2]; gene Dmpk, TC ATA v. TC DMSO): 0.6567 | Log2 Fold Change ([2]; gene Dpep1, TC ATA v. TC DMSO): 0.7304 | Log2 Fold Change ([2]; gene Epha4, TC ATA v. TC DMSO): 0.8248 | Log2 Fold Change ([2]; gene Ercc1, TC ATA v. TC DMSO): -0.7217 | Log2 Fold Change ([2]; gene Errfi1, TC ATA v. TC DMSO): -0.4719 | Log2 Fold Change ([2]; gene Fabp3, TC ATA v. TC DMSO): 1.14 | Log2 Fold Change ([2]; gene Fam13c, TC ATA v. TC DMSO): 0.6886 | Log2 Fold Change ([2]; gene Fam110c, TC ATA v. TC DMSO): -0.7995 | Log2 Fold Change ([2]; gene Fam114a1, TC ATA v. TC DMSO): 0.3512 | Log2 Fold Change ([2]; gene Fgf7, TC ATA v. TC DMSO): 0.4417 | Log2 Fold Change ([2]; gene Fn1, TC ATA v. TC DMSO): 0.5505 | Log2 Fold Change ([2]; gene Galnt15, TC ATA v. TC DMSO): 1.35 | Log2 Fold Change ([2]; gene Gas1, TC ATA v. TC DMSO): 0.4145 | Log2 Fold Change ([2]; gene Ggct, TC ATA v. TC DMSO): -0.7955 | Log2 Fold Change ([2]; gene Gm49774, TC ATA v. TC DMSO): -0.6084 | Log2 Fold Change ([2]; gene Gse1, TC ATA v. TC DMSO): 0.7002 | Log2 Fold Change ([2]; gene Gsta3, TC ATA v. TC DMSO): 0.7075 | Log2 Fold Change ([2]; gene Gstm1, TC ATA v. TC DMSO): 0.6142 | Log2 Fold Change ([2]; gene Hivep3, TC ATA v. TC DMSO): 0.5196 | Log2 Fold Change ([2]; gene Hmga1b, TC ATA v. TC DMSO): -0.4737 | Log2 Fold Change ([2]; gene Htra1, TC ATA v. TC DMSO): -0.7041 | Log2 Fold Change ([2]; gene Id1, TC ATA v. TC DMSO): 1.021 | Log2 Fold Change ([2]; gene Id3, TC ATA v. TC DMSO): 0.8267 | Log2 Fold Change ([2]; gene Igfbp4, TC ATA v. TC DMSO): 0.6017 | Log2 Fold Change ([2]; gene Il1r1, TC ATA v. TC DMSO): 0.3663 | Log2 Fold Change ([2]; gene Il11ra1, TC ATA v. TC DMSO): 0.412 | Log2 Fold Change ([2]; gene Il17rd, TC ATA v. TC DMSO): 0.6209 | Log2 Fold Change ([2]; gene Ipo7, TC ATA v. TC DMSO): -0.2967 | Log2 Fold Change ([2]; gene Lrig1, TC ATA v. TC DMSO): -0.4157 | Log2 Fold Change ([2]; gene Ltbp2, TC ATA v. TC DMSO): -0.4917 | Log2 Fold Change ([2]; gene Ly6a, TC ATA v. TC DMSO): 1.151 | Log2 Fold Change ([2]; gene Mgst1, TC ATA v. TC DMSO): 1.029 | Log2 Fold Change ([2]; gene Mocs1, TC ATA v. TC DMSO): 0.3748 | Log2 Fold Change ([2]; gene Mrgprf, TC ATA v. TC DMSO): 0.6309 | Log2 Fold Change ([2]; gene Mybpc1, TC ATA v. TC DMSO): 0.8979 | Log2 Fold Change ([2]; gene Myl3, TC ATA v. TC DMSO): 1.696 | Log2 Fold Change ([2]; gene Myoz2, TC ATA v. TC DMSO): 1.5589 | Log2 Fold Change ([2]; gene Naaa, TC ATA v. TC DMSO): 0.4836 | Log2 Fold Change ([2]; gene Nefm, TC ATA v. TC DMSO): -1.532 | Log2 Fold Change ([2]; gene Nes, TC ATA v. TC DMSO): -0.5782 | Log2 Fold Change ([2]; gene Nipal1, TC ATA v. TC DMSO): -0.5524 | Log2 Fold Change ([2]; gene Nqo1, TC ATA v. TC DMSO): 0.5252 | Log2 Fold Change ([2]; gene Nrcam, TC ATA v. TC DMSO): -1.361 | Log2 Fold Change ([2]; gene Nrn1, TC ATA v. TC DMSO): 0.4579 | Log2 Fold Change ([2]; gene Nrxn2, TC ATA v. TC DMSO): 0.7098 | Log2 Fold Change ([2]; gene Odc1, TC ATA v. TC DMSO): -0.4352 | Log2 Fold Change ([2]; gene Optn, TC ATA v. TC DMSO): 0.5559 | Log2 Fold Change ([2]; gene Osmr, TC ATA v. TC DMSO): 0.5327 | Log2 Fold Change ([2]; gene Pcx, TC ATA v. TC DMSO): 0.5741 | Log2 Fold Change ([2]; gene Pdgfrb, TC ATA v. TC DMSO): 0.5085 | Log2 Fold Change ([2]; gene Pdgfrl, TC ATA v. TC DMSO): 0.4243 | Log2 Fold Change ([2]; gene Podnl1, TC ATA v. TC DMSO): -0.4267 | Log2 Fold Change ([2]; gene Prrx2, TC ATA v. TC DMSO): 0.8257 | Log2 Fold Change ([2]; gene Pvr, TC ATA v. TC DMSO): -0.3787 | Log2 Fold Change ([2]; gene Rcan2, TC ATA v. TC DMSO): 0.6454 | Log2 Fold Change ([2]; gene Rgs4, TC ATA v. TC DMSO): 0.757 | Log2 Fold Change ([2]; gene Rnf150, TC ATA v. TC DMSO): 0.5435 | Log2 Fold Change ([2]; gene Sema7a, TC ATA v. TC DMSO): -1.826 | Log2 Fold Change ([2]; gene Serpinb9, TC ATA v. TC DMSO): 0.5861 | Log2 Fold Change ([2]; gene Serpine2, TC ATA v. TC DMSO): 0.9636 | Log2 Fold Change ([2]; gene Setbp1, TC ATA v. TC DMSO): 0.5242 | Log2 Fold Change ([2]; gene Slc45a3, TC ATA v. TC DMSO): 0.6918 | Log2 Fold Change ([2]; gene Smoc2, TC ATA v. TC DMSO): 0.9475 | Log2 Fold Change ([2]; gene Ssbp2, TC ATA v. TC DMSO): 0.4963 | Log2 Fold Change ([2]; gene Stard10, TC ATA v. TC DMSO): 0.7192 | Log2 Fold Change ([2]; gene Sulf2, TC ATA v. TC DMSO): 0.5447 | Log2 Fold Change ([2]; gene Thbs3, TC ATA v. TC DMSO): 0.6372 | Log2 Fold Change ([2]; gene Tmem119, TC ATA v. TC DMSO): 0.9507 | Log2 Fold Change ([2]; gene Tnnt1, TC ATA v. TC DMSO): 1.595 | Log2 Fold Change ([2]; gene Tnxb, TC ATA v. TC DMSO): 0.5484 | Log2 Fold Change ([2]; gene Tpm2, TC ATA v. TC DMSO): 0.3178 | Log2 Fold Change ([2]; gene Trim30a, TC ATA v. TC DMSO): 1.18 | Log2 Fold Change ([2]; gene Trp53inp2, TC ATA v. TC DMSO): 0.6286 | Log2 Fold Change ([2]; gene Zfp503, TC ATA v. TC DMSO): 0.4797
